Target: T1, streptavidin (Streptomyces avidinii, UniProt P22629)
T1 construct: purchased Sigma-Aldrich
Test: Competitive inhibition of streptavidin capture on biotin-PDTF by free biotin
Assay type: binding
Conditions: streptavidin preincubated 30 min with free biotin; chip 0.25 pmol/monolayer biotin (1% biotin-PDTF)
Source text: The remaining free protein (in this case streptavidin) concentration in solution can then be estimated with the MILD-MALDI-MS approach.
The surfaces were allowed to air dry.

With `O=C(O)CCCC[C@@H]1SC[C@@H]2NC(=O)N[C@@H]21` [biotin] as the compound, how does the “free biotin excess over streptavidin at which competition is clearly seen” value read?
Its value is 100 -fold.
